Measured values from patent US3966744A, “Spin labeled compounds” (priority 1974, dated 1976).
Several values for one entry are separate records, joined by “and”; a condition that tells them apart may be missing. Identical values can stand only once. Counter-ions that a name gives are not always drawn. Like-named read-outs stand apart in the source and are kept apart here.

Legend:
phenobarbital antibody = experiment: Phenobarbital spin immunoassay; conditions: 1 × 10^-5 M (2.2-2.6 μg/ml), pH 7, 10 µM
Amphetamine antibody = experiment: Amphetamine spin immunoassay; type: binding, rabbit; conditions: for mobilization with urine of individuals who indicated taking cross reacting substances: six of 100 urines, background 10% or less
Protocol: Two plastic cups were employed. In one cup was 2.5 μl of 0.2 M sodium dichromate. In the other cup was 5.0 μl of antibody solution. The sample was transferred employing a 25 μl Oxford Sampler and introduced into the cup containing dichromate. The dichromate sample solution was agitated by means of the sample, drawn up with the sampler and introduced into the cup containing antibody, without touching the antibody. To the resulting solution was then added 5 μl of spin label, the sample was then stirred with an ESR capillary tube, the sample allowed to rise into the capillary and the spectrum read.

antibody (cocaine assay) = type: binding, rabbit; conditions: read from graph
secobarbital antibody = experiment: Secobarbital (seconal) spin immunoassay
[1] = tested on: supported morphine antibodies; experiment: Binding of free radical labeled morphine to supported morphine antibodies (ESR); parameters: species or system rabbit; conditions: pH 8 borate buffer, 10^-4 M label, 2 hours
[2] = Storage stability of the cocaine assay spin label (binding constant); type: physicochemical; conditions: storage in distilled water, substantially metal ion free, carbon dioxide bubbled through
Protocol: The spin labeled compound employed was prepared according to Example 7.1.

morphine antibody = experiment: Detection of morphine and its metabolite in urine by spin immunoassay (ESR); type: binding, rabbit
morphine antibodies = experiment: Morphine spin immunoassay (ESR), specificity; conditions: spin label of Example 2.1
dinitrophenyl antibodies = experiment: Spin immunoassay with labeled dinitrophenyl hapten and dinitrophenyl antibodies (ESR); type: binding; conditions: increasing amounts, 10^-5 M solution in water, maximum 14 μl
Protocol: (The antibodies were prepared according to Eisen, et al., JACS, 75, 4583 (1953) and the labeled hapten was prepared in accordance with Hsia, et al, Archives of Biochemistry and Biophysics 132, 466 (1969)). The following procedure was employed. The quantities of the two compounds were chosen by adding small portions of the haptens to the antibody solution until the ESR signal intensity began to rise sharply with addition of each portion. At this point, all the binding sites on the antibodies were occupied by the label and the addition was stopped. Increasing amounts of N-epsilon-dinitrophenyllysine were then added to the solution.
The labeled hapten was dissolved in 20 percent aq. methanol at about 1-2 × 10^-^5 M concentration. Approximately 10 μl of the antibody solution and 10-20 μl of the labeled hapten solution were combined and varying amounts of 10^-^5 M solution of N-epsilon-dinitrophenyllysine in water added, the maximum being 14 μl.
By using appropriate standards, the ESR signal intensity may be related to the concentration of the N-epsilon dinitrophenyllysine in solution. Therefore, by taking an unknown solution suspected of having such a hapten, and introducing a standardized amount of the antibody-hapten complex, one can rapidly determine the concentration of the N-epsilon dinitrophenyllysine in solution.

[3] = tested on: antibody (methadone assay); type: binding, rabbit; conditions: 3.4 μg/ml
Protocol: The spin immunoassay was carried out similarly to the prior assays. Two plastic cups were employed, one cup containing 5 μl of 0.2 molar sodium dichromate and the second 5 μl of borate buffered antibody at pH 8. […] To the dichromate is added 50 μl of sample and a 20 μl aliquot is transferred from the first cup to the second cup containing the antibody solution.
Fifty-five urine samples were tested according to the above procedure.

[4] = urine samples 6-10 of drug takers, percentage of maximum increase with high concentrations of morphine, drug taken

CCC1(CC)C(=O)NC(=O)N(C)C1=O [metharbital]
% Mobilization (phenobarbital antibody): 6%

NCCc1ccccc1 [phenethylamine]
% Mobilization (Amphetamine antibody; 2.5 μg/ml (0.8-2.1 × 10^-5 M)): 26%

CNC(C)(C)Cc1ccccc1 [mephentermine]
recognition by the amphetamine antibody (Amphetamine antibody): recognizes | % Mobilization (antibody (cocaine assay); 10 μg/ml): 35%

CCCC(C)C1(CC)C(=O)NC(=O)NC1=O (centres unmarked) [pentobarbital]
minimum concentration that could be detected (secobarbital antibody): 2 µg/mL

COc1ccc2c(c1)[C@]13CCCC[C@@H]1[C@H](C2)N(C)CC3 [dextromethorphan]
% Mobilization (antibody (cocaine assay); 10 μg/ml): 33%

CC(N)C(O)c1ccccc1 (centres unmarked) [phenylpropanolamine.HCl]
% Mobilization (Amphetamine antibody; 2.5 μg/ml (0.8-2.1 × 10^-5 M)): 13%

CC(Cc1ccccc1)N(C)Cc1ccccc1 (centres unmarked) [benzophetamine.HCl]
% Mobilization (Amphetamine antibody; 2.5 μg/ml (0.8-2.1 × 10^-5 M)): 12%

COc1cc(CCN)cc(OC)c1OC [mescaline]
mobilization with urine of individuals who indicated taking cross reacting substances (Amphetamine antibody): greater than 14%

CN1CC[C@]23c4c5ccc(OCC(=O)NC6CC(C)(C)N([O])C(C)(C)C6)c4O[C@H]2[C@@H](O)C=C[C@H]3[C@H]1C5 [Example 2.2, 4-[2'(O^3" Morphino)acetamido]-2,2,6,6-tetramethylpiperidino-1-oxyl]
binding of the free radical labeled morphine to the receptor (ESR signals) [1]: broad ESR signals indicating the binding of the free radical labeled morphine to the receptor

COC(=O)[C@H]1[C@@H](OC(=O)c2ccc(NC(=O)C3CC(C)(C)N([O])C3(C)C)cc2)C[C@@H]2CC[C@H]1N2C (some centres unmarked) [Example 7.1]
binding constant on storage of the spin label [2]: the binding constant diminished with time unless the spin label was stored at pH 5 in the absence of any buffer

CN[C@@H](C)Cc1ccccc1 [methamphetamine]
recognition by the amphetamine antibody (Amphetamine antibody): recognizes

CC(=O)Oc1ccc2c3c1O[C@H]1[C@@H](OC(C)=O)C=C[C@H]4[C@@H](C2)N(C)CC[C@@]341 [heroin]
% Signal Increase (morphine antibody; urine of single heroin user, day 2, drug taken on second and fifth days): 57% | % Signal Increase (morphine antibody; urine of single heroin user, day 3, drug taken on second and fifth days): 32% | % Signal Increase (morphine antibody; urine of single heroin user, day 4, drug taken on second and fifth days): 26% | % Signal Increase (morphine antibody; urine of single heroin user, day 5, drug taken on second and fifth days): 47% | % Signal Increase (morphine antibody; urine of single heroin user, day 6, drug taken on second and fifth days): 26% | % Signal Increase (morphine antibody; urine of single heroin user, day 7, drug taken on second and fifth days): 16% | % Signal Increase (morphine antibody; urine of single heroin user, day 8, drug taken on second and fifth days): 8% | % Signal Increase (morphine antibody; urine of single heroin user, day 9, drug taken on second and fifth days): 40% | % Signal Increase (morphine antibody; [4]): 81% and 100%

CN1CC[C@]23c4c5ccc(O[C@@H]6O[C@H](C(=O)O)[C@@H](O)[C@H](O)[C@H]6O)c4O[C@H]2[C@@H](O)C=C[C@H]3[C@H]1C5 [morphine-O^3 -glucuronide]
detection by the morphine assay (morphine antibodies): can also be detected

NC(CCCCNc1ccc([N+](=O)[O-])cc1[N+](=O)[O-])C(=O)O (centres unmarked) [N-epsilon-dinitrophenyllysine]
ESR signal on addition to antibodies-labeled hapten complex (dinitrophenyl antibodies): an increase in the ESR signal was observed

CCC1(c2ccccc2)C(=O)NC(=O)NC1=O [sodium phenobarbital]
minimum concentration that could be detected (secobarbital antibody): 40 µg/mL

CCCC(C)C1(CC)C(=O)NC(=S)NC1=O (centres unmarked) [thiopental sodium]
minimum concentration that could be detected (secobarbital antibody): 3.5 µg/mL

CNC(C)(C)Cc1ccccc1 [mephentermine.H2 SO4]
% Mobilization (Amphetamine antibody; 2.5 μg/ml (0.8-2.1 × 10^-5 M)): 28%

CCC1(CCC(C)C)C(=O)NC(=O)NC1=O [amobarbital]
% Mobilization (phenobarbital antibody): 16% | minimum concentration that could be detected (secobarbital antibody): 2.5 µg/mL

C=CCC1(C(C)CCC)C(=O)NC(=O)NC1=O (centres unmarked) [secobarbital]
% Mobilization (phenobarbital antibody): 7% | sensitivity of the assay (secobarbital antibody): the greatest sensitivity is achieved with secobarbital

CCC1(c2ccccc2)CCC(=O)NC1=O (centres unmarked) [glutethimide]
% Mobilization (phenobarbital antibody): 0.5%

C=CCN1CC[C@]23c4c5ccc(O)c4O[C@H]2[C@@H](O)C=C[C@H]3[C@H]1C5 [nalorphine]
detection by the morphine assay (morphine antibodies): can also be detected

COC(=O)[C@H]1[C@@H](OC(=O)c2ccccc2)C[C@@H]2CC[C@H]1N2C [cocaine]
% Mobilization (antibody (cocaine assay); 1 μg/ml): 49% | % Mobilization (antibody (cocaine assay); 10 μg/ml): 80%

CN[C@@H](C)[C@@H](O)c1ccccc1 [pseudophedrine]
mobilization with urine of individuals who indicated taking cross reacting substances (Amphetamine antibody): greater than 14%

CNC(C)Cc1ccccc1 (centres unmarked) [methamphetamine.HCl]
% Mobilization (Amphetamine antibody; 2.5 μg/ml (0.8-2.1 × 10^-5 M)): 29%

CCC1(c2ccccc2)C(=O)NC(=O)N(C)C1=O (centres unmarked) [mephobarbital]
% Mobilization (phenobarbital antibody): 32%

CC(N)Cc1ccccc1 (centres unmarked) [amphetamine.HCl]
% Mobilization (Amphetamine antibody; 1.7 μg/ml (1.1 × 10^-5 M)): 26%

CCC1(c2ccccc2)C(=O)NC(=O)NC1=O [phenobarbital]
% Mobilization (phenobarbital antibody): 25%

CCCC(C)C1(CC)C(=O)NC(=O)NC1=O (centres unmarked) [sodium pentobarbital]
% Mobilization (phenobarbital antibody): 10%

CCC(=O)C(CC(C)N(C)C)(c1ccccc1)c1ccccc1 (centres unmarked) [methadone]
detection by the morphine assay (morphine antibodies): insensitive

CC(N)Cc1ccccc1 (centres unmarked) [amphetamine]
recognition by the amphetamine antibody (Amphetamine antibody): recognizes | peak ratio (amphetamine/saline) (Amphetamine antibody; 10^-3 molar amphetamine, loading ratio 0.95): 5 | mobilization with urine of individuals who indicated taking cross reacting substances (Amphetamine antibody): greater than 14%

COc1ccc2c3c1O[C@H]1[C@@H](O)C=C[C@H]4[C@@H](C2)N(C)CC[C@@]341 [codeine]
% Signal Increase (morphine antibody; [4]): 75% and 62% | detection by the morphine assay (morphine antibodies): detected by the same procedure

CC(N)C(O)c1ccccc1 (centres unmarked) [phenylpropanolamine]
mobilization with urine of individuals who indicated taking cross reacting substances (Amphetamine antibody): greater than 14% | % Mobilization (antibody (cocaine assay); 10 μg/ml): 26%

CN(C)CCCN1c2ccccc2Sc2ccc(Cl)cc21 [thorazine]
% Mobilization [3]: 9%

CNC(C)CC1CCCCC1 (centres unmarked) [propylhexedrine.HCl]
% Mobilization (Amphetamine antibody; 250 μg/ml (131 × 10^-5 M)): 71%
